In this experiment the target is T1, human orexin type 2 receptor (hOX2R) (Homo sapiens, UniProt O43614).
T1 construct: expressed in transfected cells
T1 sequence (O43614 1-444): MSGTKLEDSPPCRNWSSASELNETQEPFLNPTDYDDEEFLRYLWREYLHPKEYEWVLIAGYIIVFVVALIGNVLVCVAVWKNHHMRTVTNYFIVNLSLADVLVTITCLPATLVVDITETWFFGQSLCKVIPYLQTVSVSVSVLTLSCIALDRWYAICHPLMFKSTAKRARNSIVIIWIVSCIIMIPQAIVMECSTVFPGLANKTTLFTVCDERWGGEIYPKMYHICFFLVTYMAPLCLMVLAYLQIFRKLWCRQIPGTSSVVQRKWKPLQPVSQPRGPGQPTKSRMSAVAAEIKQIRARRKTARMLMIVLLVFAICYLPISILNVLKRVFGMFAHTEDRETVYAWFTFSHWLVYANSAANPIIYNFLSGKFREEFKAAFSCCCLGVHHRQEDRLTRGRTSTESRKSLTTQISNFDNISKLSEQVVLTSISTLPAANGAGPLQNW
The experiment can be described thus: Measurement of orexin type 2 receptor agonist activity (FLIPR calcium fluorescence). Format: cell-based. Conditions: CHO cells expressing hOX2R, FLIPR calcium fluorescence; for EC50: read-out: hOx2 pEC50 (converted); for Emax: CHO, read-out: hOx2 Emax (%). Summed up:
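Agonism was read as fluorescence in cells stably expressing human OX2R. E. is the response at 10 μM relative to orexin A as full agonist (100%).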

One may read the Emax as the size of the effect at its maximum, as opposed to the concentration needed.

Take `CC(C)(O)C(=O)N1CC2(CC2)[C@H](NS(=O)(=O)CF)[C@@H]1Cc1cccc(-c2cccc(F)c2)c1F` [Compound 177, N-((6S,7S)-6-((2,3′-difluoro-[1,1′-biphenyl]-3-yl)methyl)-5-(2-hydroxy-2-methylpropanoyl)-5-azaspiro[2.4]heptan-7-yl)-1-fluoromethanesulfonamide]: the EC50 was 1 to 10 nM and the Emax was in the range of 90 to 100%.

With `CCS(=O)(=O)N[C@@H]1[C@H](Cc2cccc(-c3ccccc3)c2F)N(C(=O)[C@H](O)CF)CC12CC2` [Compound 178], the EC50 is 1 to 10 nM and the Emax was 90 to 100%.

In the case of `CC(F)(F)C(=O)N1CC2(CC2)[C@H](NS(=O)(=O)CF)[C@@H]1Cc1cccc(-c2cccc(F)c2)c1F` [Compound 179, N-((6S,7S)-6-((2,3′-difluoro-[1,1′-biphenyl]-3-yl)methyl)-5-(2,2-difluoropropanoyl)-5-azaspiro[2.4]heptan-7-yl)-1-fluoromethanesulfonamide], the EC50 was 1 to 10 nM and the Emax was 70 to 80%.

Turning to `COC1(C(=O)N2CC3(CC3)[C@H](NS(=O)(=O)CF)[C@@H]2Cc2cccc(-c3ccccc3)c2F)CC1` [Compound 180, 1-fluoro-N-((6S,7S)-6-((2-fluoro-[1,1′-biphenyl]-3-yl)methyl)-5-(1-methoxycyclopropane-1-carbonyl)-5-azaspiro[2.4]heptan-7-yl)methanesulfonamide], the EC50 is 1 to 10 nM and the Emax was in the range of 90 to 100%.

For the compound `N#CC1(C(=O)N2CC3(CC3)[C@H](NS(=O)(=O)CF)[C@@H]2Cc2cccc(-c3ccccc3)c2F)CCC1` [Compound 181, N-((6S,7S)-5-(1-cyanocyclobutane-1-carbonyl)-6-((2-fluoro-[1,1′-biphenyl]-3-yl)methyl)-5-azaspiro[2.4]heptan-7-yl)-1-fluoromethanesulfonamide], the EC50 is 1 to 10 nM and the Emax is 90 to 100%.

As to `O=C([C@H]1C[C@H](F)C1)N1CC2(CC2)[C@H](NS(=O)(=O)C(F)F)[C@@H]1Cc1cccc(-c2ccccc2)c1F` [Compound 182, 1,1-difluoro-N-((6S,7S)-6-((2-fluoro-[1,1′-biphenyl]-3-yl)methyl)-5-((1r,3r)-3-fluorocyclobutane-1-carbonyl)-5-azaspiro[2.4]heptan-7-yl)methanesulfonamide], the EC50 is 1 to 10 nM and the Emax fell in the range of 90 to 100%.

`COC[C@H](O)C(=O)N1CC2(CC2)[C@H](NS(=O)(=O)C(F)F)[C@@H]1Cc1cccc(-c2ccccc2)c1F` [Compound 183, 1,1-difluoro-N-((6S,7S)-6-((2-fluoro-[1,1′-biphenyl]-3-yl)methyl)-5-((S)-2-hydroxy-3-methoxypropanoyl)-5-azaspiro[2.4]heptan-7-yl)methanesulfonamide]: the EC50 is 1 to 10 nM and the Emax was in the range of 90 to 100%.

As for `CCS(=O)(=O)N[C@@H]1[C@H](Cc2cccc(-c3cccc(F)c3)c2F)N(C(=O)C(C)(C)O)CC12CC2` [Compound 184, N-((6S,7S)-6-((2,3′-difluoro-[1,1′-biphenyl]-3-yl)methyl)-5-(2-hydroxy-2-methylpropanoyl)-5-azaspiro[2.4]heptan-7-yl)ethanesulfonamide], the EC50 was 1 to 10 nM and the maximal effect (Emax) fell in the range of 90 to 100%.

Turning to `CCS(=O)(=O)N[C@@H]1[C@H](Cc2cccc(-c3cc(F)cc(F)c3)c2F)N(C(=O)[C@H]2CCO2)CC12CC2` [Compound 185, N-((6S,7S)-5-((R)-oxetane-2-carbonyl)-6-((2,3′,5′-trifluoro-[, 1′-biphenyl]-3-yl)methyl)-5-azaspiro[2.4]heptan-7-yl)ethanesulfonamide], the EC50 was 0.0794 to 1 nM and the Emax was 90 to 100%.

Consider `N#CC1(CNC(=O)N2CC3(CC3)[C@H](NS(=O)(=O)CF)[C@@H]2Cc2cccc(-c3ccccc3)c2F)CC1` [Compound 186, (6S,7S)-N-((1-cyanocyclopropyl)methyl)-6-((2-fluoro-[1,1′-biphenyl]-3-yl)methyl)-7-((fluoromethyl)sulfonamido)-5-azaspiro[2.4]heptane-5-carboxamide], for which the EC50 is 0.0794 to 1 nM and the Emax lay in the range of 90 to 100%.

For `O=C(NCC(F)F)N1CC2(CC2)[C@H](NS(=O)(=O)CF)[C@@H]1Cc1cccc(-c2ccccc2)c1F` [Compound 187, (6S,7S)-N-(2,2-difluoroethyl)-6-((2-fluoro-[1,1′-biphenyl]-3-yl)methyl)-7-((fluoromethyl)sulfonamido)-5-azaspiro[2.4]heptane-5-carboxamide], the EC50 was 0.0794 to 1 nM and the Emax lay within 90 to 100%.

On to `O=C([C@H]1C[C@H](F)C1)N1CC2(CC2)[C@H](NS(=O)(=O)CF)[C@@H]1Cc1cccc(-c2ccccc2)c1F` [Compound 188], for which the EC50 is 1 to 10 nM and the Emax lay within 90 to 100%.

Regarding `O=C([C@H]1C[C@@H](F)C1)N1CC2(CC2)[C@H](NS(=O)(=O)CF)[C@@H]1Cc1cccc(-c2ccccc2)c1F` [Compound 189], the EC50 is 1 to 10 nM and the Emax was 90 to 100%.

`O=C([C@H](O)CF)N1CC2(CC2)[C@H](NS(=O)(=O)CF)[C@@H]1Cc1cc(F)cc(-c2ccccc2)c1F` [Compound 190, N-((6S,7S)-6-((2,5-difluoro-[1,1′-biphenyl]-3-yl)methyl)-5-((S)-3-fluoro-2-hydroxypropanoyl)-5-azaspiro[2.4]heptan-7-yl)-1-fluoromethanesulfonamide]: the EC50 is 1 to 10 nM and the maximal response (Emax) was 90 to 100%.

Regarding `O=C(NCC(F)F)N1CC2(CC2)[C@H](NS(=O)(=O)CF)[C@@H]1Cc1cc(F)cc(-c2ccccc2)c1F` [Compound 191, (6S,7S)-6-((2,5-difluoro-[1,1′-biphenyl]-3-yl)methyl)-N-(2,2-difluoroethyl)-7-((fluoromethyl)sulfonamido)-5-azaspiro[2.4]heptane-5-carboxamide], the EC50 was 1 to 10 nM and the maximal response (Emax) was in the range of 90 to 100%.

Consider `CC(C)(O)C(=O)N1CC2(CC2)[C@H](NS(=O)(=O)CF)[C@@H]1Cc1cccc(-c2cc(F)cc(F)c2)c1F` [Compound 192, 1-fluoro-N-((6S,7S)-5-(2-hydroxy-2-methylpropanoyl)-6-((2,3′,5′-trifluoro-[1,1′-biphenyl]-3-yl)methyl)-5-azaspiro[2.4]heptan-7-yl)methanesulfonamide], for which the EC50 was 1 to 10 nM and the Emax fell in the range of 90 to 100%.

As for `C[C@@H](F)S(=O)(=O)N[C@@H]1[C@H](Cc2cccc(-c3ccccc3)c2F)N(C(=O)[C@H]2CCO2)CC12CC2` [Compound 193, (S)-1-fluoro-N-((6S,7S)-6-((2-fluoro-[1,1′-biphenyl]-3-yl)methyl)-5-((R)-oxetane-2-carbonyl)-5-azaspiro[2.4]heptan-7-yl)ethane-1-sulfonamide], the EC50 is 1 to 10 nM and the Emax was in the range of 90 to 100%.

With `C[C@H](F)S(=O)(=O)N[C@@H]1[C@H](Cc2cccc(-c3ccccc3)c2F)N(C(=O)[C@H]2CCO2)CC12CC2` [Compound 194, (R)-1-fluoro-N-((6S,7S)-6-((2-fluoro-[1,1′-biphenyl]-3-yl)methyl)-5-((R)-oxetane-2-carbonyl)-5-azaspiro[2.4]heptan-7-yl)ethane-1-sulfonamide], the EC50 is 1 to 10 nM and the Emax fell in the range of 90 to 100%.

Turning to `CC(C)(O)C(=O)N1CC2(CC2)[C@H](NS(=O)(=O)C(F)F)[C@@H]1Cc1cccc(-c2cc(F)cc(F)c2)c1F` [Compound 195, 1,1-difluoro-N-((6S,7S)-5-(2-hydroxy-2-methylpropanoyl)-6-((2,3′,5′-trifluoro-[1,1′-biphenyl]-3-yl)methyl)-5-azaspiro[2.4]heptan-7-yl)methanesulfonamide], the EC50 is 1 to 10 nM and the Emax was in the range of 90 to 100%.

For the compound `O=C([C@H]1CCO1)N1CC2(CC2)[C@H](NS(=O)(=O)CF)[C@@H]1Cc1cccc(-c2cccc(C(F)F)c2)c1F` [Compound 196, N-((6S,7S)-6-((3′-(difluoromethyl)-2-fluoro-[1,1′-biphenyl]-3-yl)methyl)-5-((R)-oxetane-2-carbonyl)-5-azaspiro[2.4]heptan-7-yl)-1-fluoromethanesulfonamide], the EC50 is 0.0794 to 1 nM and the Emax was 90 to 100%.

`O=C([C@H]1CCO1)N1CC2(CC2)[C@H](NS(=O)(=O)CF)[C@@H]1Cc1cccc(-c2cccc(C(F)(F)F)c2)c1F` [Compound 197, 1-fluoro-N-((6S,7S)-6-((2-fluoro-3′-(trifluoromethyl)-[1,1′-biphenyl]-3-yl)methyl)-5-((R)-oxetane-2-carbonyl)-5-azaspiro[2.4]heptan-7-yl)methanesulfonamide]: the EC50 was 10 to 100 nM and the Emax is 80 to 90%.

For the compound `O=C([C@@H](O)C(F)F)N1CC2(CC2)[C@H](NS(=O)(=O)C(F)F)[C@@H]1Cc1cccc(-c2ccccc2)c1F` [Compound 198, N-((6S,7S)-5-((R)-3,3-difluoro-2-hydroxypropanoyl)-6-((2-fluoro-[1,1′-biphenyl]-3-yl)methyl)-5-azaspiro[2.4]heptan-7-yl)-1,1-difluoromethanesulfonamide], the EC50 is 1 to 10 nM and the Emax was in the range of 90 to 100%.

Consider `[2H]C([2H])([2H])c1cccc(-c2cccc(C[C@H]3[C@@H](NS(=O)(=O)C(F)F)C4(CC4)CN3C(=O)[C@H]3CCO3)c2F)c1` [Compound 199, 1,1-difluoro-N-((6S,7S)-6-((2-fluoro-3′-(methyl-d3)-[1,1′-biphenyl]-3-yl)methyl)-5-((R)-oxetane-2-carbonyl)-5-azaspiro[2.4]heptan-7-yl)methanesulfonamide], for which the EC50 was 0.0794 to 1 nM and the Emax lay in the range of 90 to 100%.

(Values after patent US12503475B2 (Centessa Pharmaceuticals (UK) Limited, priority 2020, dated 2025).)
